Tests used:
ALK kinase [1] = target: T1, ALK kinase (Homo sapiens, UniProt Q9UM73); assay: ALK inhibition activity by Caliper assay; assay type: biochemical; conditions: compound 100 nM
Procedure: Example 5 Testing the ALK Inhibition Activity of Compound by Caliper Assay
The experimental steps were as follows:
Preparation of 1×kinase reaction buffer (50 mM HEPES, PH 7.5; 0.0015% Brij-35) and kinase reaction termination solution (100 mM HEPES, PH 7.5; 0.0015% Brij-35; 0.2% Coating Reagent; 50 mM EDTA);
Preparation of experimental samples: 100 μl of 5 μM sample solution (dissolved in 100% DMSO) was added to a 96-well plate to obtain a 50×sample solution. As controls, two wells containing only 100 μL of 100% DMSO were set on the same plate. One was served as a control without samples and the other was served as a control without enzymes. 10 μL of sample and 90 μL, of 1×kinase reaction buffer were added to a 96-well plate as a transfer plate. The transfer plate was shaken for 10 minutes.
Preparation of the test plate: taking 5 μL of each of the prepared samples from the 96-well transfer plate into a 384-well plate.
Kinase reaction: to 5 μL of 5×compound solution (dissolved in DMSO, diluted 10 times with water) was added 10 μL of 2.5×ALK kinase solution (kinase was diluted with 1×kinase reaction buffer), which was incubated at room temperature for 10 min, and then 10 μL of 2.5×substrate peptide solution (FAM-labeled peptide and ATP were diluted with 1×kinase reaction buffer) was added.
Termination of the kinase reaction: 25 μL of kinase reaction termination solution was added after being reacted at 28° C. for a period of time.
The fluorescence (F) was tested on a Caliper and data was collected.
The inhibition rate of kinase activity was calculated: the percent inhibition rate of kinase activity=(FDMSO control−Fsample)/(FDMSO control−Fnegative control)×100, with DMSO as the solution control, and no kinase as the negative control.
Target sequence in this assay (Q9UM73 19-1620): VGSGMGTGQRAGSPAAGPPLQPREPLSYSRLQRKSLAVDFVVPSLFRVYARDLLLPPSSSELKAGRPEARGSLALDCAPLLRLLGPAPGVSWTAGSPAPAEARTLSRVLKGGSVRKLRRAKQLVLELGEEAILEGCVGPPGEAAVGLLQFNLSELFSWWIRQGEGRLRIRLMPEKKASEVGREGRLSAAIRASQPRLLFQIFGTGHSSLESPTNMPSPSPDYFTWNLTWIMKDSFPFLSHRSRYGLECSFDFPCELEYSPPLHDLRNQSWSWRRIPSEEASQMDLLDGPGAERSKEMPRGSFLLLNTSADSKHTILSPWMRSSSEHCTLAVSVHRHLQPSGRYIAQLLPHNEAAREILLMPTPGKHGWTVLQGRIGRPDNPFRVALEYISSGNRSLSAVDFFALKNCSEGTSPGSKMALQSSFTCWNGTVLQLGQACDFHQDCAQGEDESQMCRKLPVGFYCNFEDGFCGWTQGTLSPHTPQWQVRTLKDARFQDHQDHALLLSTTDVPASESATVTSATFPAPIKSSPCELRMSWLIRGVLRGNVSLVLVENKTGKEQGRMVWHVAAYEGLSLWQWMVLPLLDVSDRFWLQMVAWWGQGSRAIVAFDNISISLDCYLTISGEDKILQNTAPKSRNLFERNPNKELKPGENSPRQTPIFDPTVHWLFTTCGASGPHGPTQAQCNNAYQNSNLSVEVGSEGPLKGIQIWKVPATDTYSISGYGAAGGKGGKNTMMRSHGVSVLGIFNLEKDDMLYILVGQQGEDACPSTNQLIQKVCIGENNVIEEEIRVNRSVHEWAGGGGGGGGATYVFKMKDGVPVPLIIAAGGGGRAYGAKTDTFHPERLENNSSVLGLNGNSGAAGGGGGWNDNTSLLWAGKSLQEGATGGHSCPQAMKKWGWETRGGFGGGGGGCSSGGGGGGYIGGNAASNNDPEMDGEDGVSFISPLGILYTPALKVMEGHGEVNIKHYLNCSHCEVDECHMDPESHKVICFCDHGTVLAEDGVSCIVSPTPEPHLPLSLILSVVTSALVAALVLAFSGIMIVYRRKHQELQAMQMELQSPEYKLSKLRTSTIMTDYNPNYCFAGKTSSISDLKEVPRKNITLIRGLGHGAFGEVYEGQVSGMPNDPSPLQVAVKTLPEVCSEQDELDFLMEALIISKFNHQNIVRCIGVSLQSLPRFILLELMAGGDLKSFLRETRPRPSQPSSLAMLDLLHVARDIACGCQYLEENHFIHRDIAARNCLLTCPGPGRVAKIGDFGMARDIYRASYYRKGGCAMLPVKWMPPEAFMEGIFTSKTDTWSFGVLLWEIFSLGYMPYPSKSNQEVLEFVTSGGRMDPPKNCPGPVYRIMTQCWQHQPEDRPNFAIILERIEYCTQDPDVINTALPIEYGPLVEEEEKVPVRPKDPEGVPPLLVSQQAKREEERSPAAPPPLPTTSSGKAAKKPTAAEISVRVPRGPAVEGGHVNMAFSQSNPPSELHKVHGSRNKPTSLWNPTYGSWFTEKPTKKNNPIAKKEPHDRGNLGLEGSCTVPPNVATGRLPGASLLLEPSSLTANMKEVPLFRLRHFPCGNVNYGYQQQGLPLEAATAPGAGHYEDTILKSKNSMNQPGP

SU-DHL-1 cells = assay: Inhibition of proliferation of SU-DHL-1 cells by CTG assay; assay type: cell-based; conditions: Homo sapiens, compound 100 μM, 72 hours
Procedure: Example 7 Testing the Inhibitory Effect of Formula Compound on the Proliferation of SU-DHL-1 Cells by CTG Assay
The inhibitory effect of the compound on the proliferation of SU-DHL-1 cells ([…]) was determined by the […] method in vitro. The Cells were cultured and the compound was prepared referring to the method of […], and the culture time after administration was 72 hours. Subsequently, an appropriate amount of CTG reagent was added, the luminescence value was measured, and the inhibition rate was calculated.

ALK kinase [2] = target: T1, ALK kinase; assay: ALK protein degradation activity by Western blot in H2228 cells; assay type: cell-based; set-up: H2228 cell lines (human non-small cell line lung cancer cells, available from ATCC); host or cells: H2228 (human non-small cell lung cancer cells); the other entry of the earlier key: EML4 (Q9HC35, Echinoderm microtubule-associated protein-like 4); conditions: NCI-H2228, compound 1 μM, treatment for 24 hours, degradation rate by Western blot
Target sequence in this assay (Q9UM73 with tags, fused parts or gaps): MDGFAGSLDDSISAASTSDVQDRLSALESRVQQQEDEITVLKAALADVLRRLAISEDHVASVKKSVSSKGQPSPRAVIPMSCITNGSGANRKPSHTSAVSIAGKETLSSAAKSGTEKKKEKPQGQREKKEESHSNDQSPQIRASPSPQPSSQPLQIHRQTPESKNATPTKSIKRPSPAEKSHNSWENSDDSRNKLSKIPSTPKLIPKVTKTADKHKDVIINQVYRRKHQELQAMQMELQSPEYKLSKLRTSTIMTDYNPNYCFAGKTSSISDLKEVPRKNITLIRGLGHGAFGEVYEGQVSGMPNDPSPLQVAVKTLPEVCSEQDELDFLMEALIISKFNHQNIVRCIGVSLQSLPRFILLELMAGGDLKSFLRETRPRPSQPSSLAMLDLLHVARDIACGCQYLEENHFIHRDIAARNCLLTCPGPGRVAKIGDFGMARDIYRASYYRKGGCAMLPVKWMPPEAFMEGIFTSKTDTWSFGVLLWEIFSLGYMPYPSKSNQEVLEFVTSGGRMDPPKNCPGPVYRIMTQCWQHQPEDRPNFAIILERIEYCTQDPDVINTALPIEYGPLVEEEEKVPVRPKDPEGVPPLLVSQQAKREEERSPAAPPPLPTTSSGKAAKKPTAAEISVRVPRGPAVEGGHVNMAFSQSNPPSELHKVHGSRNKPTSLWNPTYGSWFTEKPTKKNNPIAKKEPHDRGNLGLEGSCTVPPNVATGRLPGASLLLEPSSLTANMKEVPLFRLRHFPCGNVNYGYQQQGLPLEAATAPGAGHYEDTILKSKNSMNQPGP

| Structure (SMILES) | inhibition at 0.1 µM (ALK kinase [1]) | inhibition at 1 µM (ALK kinase [2]) | inhibition at 100 µM (SU-DHL-1 cells) |
| --- | --- | --- | --- |
| Cc1cc(Nc2ncc(Cl)c(Nc3ccccc3S(=O)(=O)C(C)C)n2)c(OC(C)C)cc1C1CCN(CCCCCC(=O)Nc2cccc3c2C(=O)N(C2CCC(=O)NC2=O)C3=O)CC1 (centres unmarked) [Compound 3] | 98% | > 90% | 72% |
| Cc1cc(Nc2ncc(Cl)c(Nc3ccccc3S(=O)(=O)C(C)C)n2)c(OC(C)C)cc1C1CCN(CCOCCOCCOc2cccc3c2C(=O)N(C2CCC(=O)NC2=O)C3=O)CC1 (centres unmarked) [Compound 7] | 97% | > 90% | 98% |
| Cc1cc(Nc2ncc(Cl)c(Nc3ccccc3S(=O)(=O)C(C)C)n2)c(OC(C)C)cc1C1CCN(S(=O)(=O)CCCCCOc2cccc3c2C(=O)N(C2CCC(=O)NC2=O)C3=O)CC1 (centres unmarked) [Compound 13] | 69% | > 90% |  |
| Cc1cc(Nc2ncc(Cl)c(Nc3ccccc3S(=O)(=O)C(C)C)n2)c(OC(C)C)cc1C1CCN(CCCCC(=O)Nc2cccc3c2C(=O)N(C2CCC(=O)NC2=O)C3=O)CC1 (centres unmarked) [Compound 16] |  | > 90% |  |
| Cc1cc(Nc2ncc(Cl)c(Nc3ccccc3S(=O)(=O)C(C)C)n2)c(OC(C)C)cc1C1CCN(CCCC(=O)Nc2cccc3c2C(=O)N(C2CCC(=O)NC2=O)C3=O)CC1 (centres unmarked) [Compound 17] |  | > 90% |  |
| Cc1cc(Nc2ncc(Cl)c(Nc3ccccc3S(=O)(=O)C(C)C)n2)c(OC(C)C)cc1C1CCN(CCC(=O)Nc2cccc3c2C(=O)N(C2CCC(=O)NC2=O)C3=O)CC1 (centres unmarked) [Compound 18] |  | > 90% |  |
| Cc1cc(Nc2ncc(Cl)c(Nc3ccccc3S(=O)(=O)C(C)C)n2)c(OC(C)C)cc1C1CCN(CCOCCOCCOCCC(=O)Nc2cccc3c2C(=O)N(C2CCC(=O)NC2=O)C3=O)CC1 (centres unmarked) [Compound 20] |  | > 90% |  |
| Cc1cc(Nc2ncc(Cl)c(Nc3ccccc3S(=O)(=O)C(C)C)n2)c(OC(C)C)cc1C1CCN(CCCCOc2cccc3c2C(=O)N(C2CCC(=O)NC2=O)C3=O)CC1 (centres unmarked) [Compound 23] |  | 50 to 90% |  |
| Cc1cc(Nc2ncc(Cl)c(Nc3ccccc3S(=O)(=O)C(C)C)n2)c(OC(C)C)cc1C1CCN(CCCOc2cccc3c2C(=O)N(C2CCC(=O)NC2=O)C3=O)CC1 (centres unmarked) [Compound 24] |  | 50 to 90% |  |
| Cc1cc(Nc2ncc(Cl)c(Nc3ccccc3S(=O)(=O)C(C)C)n2)c(OC(C)C)cc1C1CCN(CCOCCOCCOCCOCCOc2cccc3c2C(=O)N(C2CCC(=O)NC2=O)C3=O)CC1 (centres unmarked) [Compound 25] |  | > 90% |  |
| Cc1cc(Nc2ncc(Cl)c(Nc3ccccc3S(=O)(=O)C(C)C)n2)c(OC(C)C)cc1C1CCN(CCOCCOCCOCCOCCOCCOc2cccc3c2C(=O)N(C2CCC(=O)NC2=O)C3=O)CC1 (centres unmarked) [Compound 26] |  | 50 to 90% |  |
| Cc1cc(Nc2ncc(Cl)c(Nc3ccccc3S(=O)(=O)C(C)C)n2)c(OC(C)C)cc1C1CCN(CCCCCNc2cccc3c2C(=O)N(C2CCC(=O)NC2=O)C3=O)CC1 (centres unmarked) [Compound 28] |  | > 90% |  |
| Cc1cc(Nc2ncc(Cl)c(Nc3ccccc3S(=O)(=O)C(C)C)n2)c(OC(C)C)cc1C1CCN(CCOCCOCCOCCOCCNc2cccc3c2C(=O)N(C2CCC(=O)NC2=O)C3=O)CC1 (centres unmarked) [Compound 31] |  | > 90% |  |
| Cc1cc(Nc2ncc(Cl)c(Nc3ccccc3S(=O)(=O)C(C)C)n2)c(OC(C)C)cc1C1CCN(CCOCCOCCOCCOCCOCCNc2cccc3c2C(=O)N(C2CCC(=O)NC2=O)C3=O)CC1 (centres unmarked) [Compound 32] |  | 50 to 90% |  |
| Cc1cc(Nc2ncc(Cl)c(Nc3ccccc3S(=O)(=O)C(C)C)n2)c(OC(C)C)cc1C1CCN(CC(=O)NCCOCCOCCOCCOCCNc2cccc3c2C(=O)N(C2CCC(=O)NC2=O)C3=O)CC1 (centres unmarked) [Compound 37] |  | 50 to 90% |  |
| Cc1cc(Nc2ncc(Cl)c(Nc3ccccc3S(=O)(=O)C(C)C)n2)c(OC(C)C)cc1C1CCN(CC(=O)NCCOCCOCCOCCOCCOCCNc2cccc3c2C(=O)N(C2CCC(=O)NC2=O)C3=O)CC1 (centres unmarked) [Compound 38] |  | 50 to 90% |  |
| Cc1cc(Nc2ncc(Cl)c(Nc3ccccc3S(=O)(=O)C(C)C)n2)c(OC(C)C)cc1C1CCN(CC(=O)NCCOc2cccc3c2C(=O)N(C2CCC(=O)NC2=O)C3=O)CC1 (centres unmarked) [Compound 39] |  | > 90% |  |
| Cc1cc(Nc2ncc(Cl)c(Nc3ccccc3S(=O)(=O)C(C)C)n2)c(OC(C)C)cc1C1CCN(CC(=O)NCCOCCOc2cccc3c2C(=O)N(C2CCC(=O)NC2=O)C3=O)CC1 (centres unmarked) [Compound 40] |  | > 90% |  |
| Cc1cc(Nc2ncc(Cl)c(Nc3ccccc3S(=O)(=O)C(C)C)n2)c(OC(C)C)cc1C1CCN(CC(=O)NCCOCCOCCOc2cccc3c2C(=O)N(C2CCC(=O)NC2=O)C3=O)CC1 (centres unmarked) [Compound 41] |  | > 90% |  |
| Cc1cc(Nc2ncc(Cl)c(Nc3ccccc3S(=O)(=O)C(C)C)n2)c(OC(C)C)cc1C1CCN(CC(=O)NCCOCCOCCOCCOc2cccc3c2C(=O)N(C2CCC(=O)NC2=O)C3=O)CC1 (centres unmarked) [Compound 42] |  | > 90% |  |
| Cc1cc(Nc2ncc(Cl)c(Nc3ccccc3S(=O)(=O)C(C)C)n2)c(OC(C)C)cc1C1CCN(CC(=O)NCCOCCOCCOCCOCCOc2cccc3c2C(=O)N(C2CCC(=O)NC2=O)C3=O)CC1 (centres unmarked) [Compound 43] |  | 50 to 90% |  |
| Cc1cc(Nc2ncc(Cl)c(Nc3ccccc3S(=O)(=O)C(C)C)n2)c(OC(C)C)cc1C1CCN(CCOCCOCCNc2cccc3c2C(=O)N(C2CCC(=O)NC2=O)C3=O)CC1 (centres unmarked) [Compound 45] | 98% | > 90% | 97% |

Second part, led by results:

| inhibition at 0.1 µM (ALK kinase [1]) | inhibition at 1 µM (ALK kinase [2]) | Structure (SMILES) | inhibition at 100 µM (SU-DHL-1 cells) |
| --- | --- | --- | --- |
| 99% | > 90% | Cc1cc(Nc2ncc(Cl)c(Nc3ccccc3S(=O)(=O)C(C)C)n2)c(OC(C)C)cc1C1CCN(C(=O)COCCOCCNc2cccc3c2C(=O)N(C2CCC(=O)NC2=O)C3=O)CC1 (centres unmarked) [Compound 10] |  |
| 89% | > 90% | Cc1cc(Nc2ncc(Cl)c(Nc3ccccc3S(=O)(=O)C(C)C)n2)c(OC(C)C)cc1C1CCN(CCOCCOCCOCCNc2cccc3c2C(=O)N(C2CCC(=O)NC2=O)C3=O)CC1 (centres unmarked) [Compound 14] | 99% |
| 95% | > 90% | Cc1cc(Nc2ncc(Cl)c(Nc3ccccc3S(=O)(=O)C(C)C)n2)c(OC(C)C)cc1C1CCN(CCOCCOCCOCCOc2cccc3c2C(=O)N(C2CCC(=O)NC2=O)C3=O)CC1 (centres unmarked) [Compound 15] | 100% |
|  | > 90% | Cc1cc(Nc2ncc(Cl)c(Nc3ccccc3S(=O)(=O)C(C)C)n2)c(OC(C)C)cc1C1CCN(CCOCCOCCC(=O)Nc2cccc3c2C(=O)N(C2CCC(=O)NC2=O)C3=O)CC1 (centres unmarked) [Compound 19] |  |
|  | 50 to 90% | Cc1cc(Nc2ncc(Cl)c(Nc3ccccc3S(=O)(=O)C(C)C)n2)c(OC(C)C)cc1C1CCN(CCOCCOc2cccc3c2C(=O)N(C2CCC(=O)NC2=O)C3=O)CC1 (centres unmarked) [Compound 21] |  |
|  | 50 to 90% | Cc1cc(Nc2ncc(Cl)c(Nc3ccccc3S(=O)(=O)C(C)C)n2)c(OC(C)C)cc1C1CCN(CCCCCOc2cccc3c2C(=O)N(C2CCC(=O)NC2=O)C3=O)CC1 (centres unmarked) [Compound 22] |  |
|  | > 90% | Cc1cc(Nc2ncc(Cl)c(Nc3ccccc3S(=O)(=O)C(C)C)n2)c(OC(C)C)cc1C1CCN(CCOCCNc2cccc3c2C(=O)N(C2CCC(=O)NC2=O)C3=O)CC1 (centres unmarked) [Compound 27] |  |
|  | 50 to 90% | Cc1cc(Nc2ncc(Cl)c(Nc3ccccc3S(=O)(=O)C(C)C)n2)c(OC(C)C)cc1C1CCN(CCCCNc2cccc3c2C(=O)N(C2CCC(=O)NC2=O)C3=O)CC1 (centres unmarked) [Compound 29] |  |
|  | 50 to 90% | Cc1cc(Nc2ncc(Cl)c(Nc3ccccc3S(=O)(=O)C(C)C)n2)c(OC(C)C)cc1C1CCN(CCCNc2cccc3c2C(=O)N(C2CCC(=O)NC2=O)C3=O)CC1 (centres unmarked) [Compound 30] |  |
|  | > 90% | Cc1cc(Nc2ncc(Cl)c(Nc3ccccc3S(=O)(=O)C(C)C)n2)c(OC(C)C)cc1C1CCN(CC(=O)NCCNc2cccc3c2C(=O)N(C2CCC(=O)NC2=O)C3=O)CC1 (centres unmarked) [Compound 33] |  |
|  | > 90% | Cc1cc(Nc2ncc(Cl)c(Nc3ccccc3S(=O)(=O)C(C)C)n2)c(OC(C)C)cc1C1CCN(CC(=O)NCCOCCOCCNc2cccc3c2C(=O)N(C2CCC(=O)NC2=O)C3=O)CC1 (centres unmarked) [Compound 35] |  |
|  | > 90% | Cc1cc(Nc2ncc(Cl)c(Nc3ccccc3S(=O)(=O)C(C)C)n2)c(OC(C)C)cc1C1CCN(CC(=O)NCCOCCOCCOCCNc2cccc3c2C(=O)N(C2CCC(=O)NC2=O)C3=O)CC1 (centres unmarked) [Compound 36] |  |
|  | 50 to 90% | Cc1cc(Nc2ncc(Cl)c(Nc3ccccc3S(=O)(=O)C(C)C)n2)c(OC(C)C)cc1C1CCN(CC(=O)NCCOCCOCCOCCOCCOCCOc2cccc3c2C(=O)N(C2CCC(=O)NC2=O)C3=O)CC1 (centres unmarked) [Compound 44] |  |

From patent US11485726B2, “Compound for inhibiting and degrading tyrosine protein kinase ALK” (SHANGHAI MEIZER PHARMACEUTICALS CO., LTD., priority 2017, dated 2022)
